Assay results from patent US11911386B2, “Methods of treating B-cell proliferative disorder” (BeiGene Switzerland GmbH, priority 2022, dated 2024).
Where “and” joins values, the source holds several entries; their conditions need not be identical. Identical values can stand only once. Like-named read-outs stand apart in the source and are kept apart here.

## C=CC(=O)N1CCC([C@@H]2CCNc3c(C(N)=O)c(-c4ccc(Oc5ccccc5)cc4)nn32)CC1 [zanubrutinib, (S)-7-(1-acryloylpiperidin-4-yl)-2-(4-phenoxyphenyl)-4,5,6,7-tetrahydropyrazolo[1,5-a]pyrimidine-3-carboxamide]
After Coadministration
  Anemia AESI ≥Grade 3, EAIR: 0.18 per 100 person-months
  Anemia AESI, EAIR: 0.53 per 100 person-months
  Atrial fibrillation PT: 2.8%
  Atrial fibrillation and flutter AESI Grade ≥3, EAIR: 0.18 per 100 person-months
  Atrial fibrillation and flutter AESI Grade ≥3, patients: 3.7%
  Atrial fibrillation and flutter AESI, EAIR: 0.23 per 100 person-months
  Atrial fibrillation and flutter AESI, patients: 4.7%
  Atrial flutter PT: 1.9%
  Basal cell carcinoma: 5.6%
  Basal cell carcinoma leading to dose interruption: 1 (0.9%) n (%)
  Basal cell carcinoma ≥Grade 3: 1 (0.9%) n (%)
  External ear neoplasm malignant leading to dose interruption: 0 (0.0%) n (%)
  Febrile neutropenia PT: 3.7%
  Grade 3 or higher AESI: 48 (44.9) n (%)
  Haematuria (hemorrhage AESI): 4.7%
  Haematuria (major hemorrhage): 0 (0.0%) n (%)
  Haematuria (major hemorrhage) ≥Grade 3: 0 (0.0%) n (%)
  Haematuria leading to dose interruption: 0.0%
  Haematuria ≥Grade 3: 0 (0.0%) n (%)
  Hemorrhage AESI leading to dose interruption: 2.8%
  Hemorrhage AESI leading to dose reduction: 0.9%
  Hemorrhage AESI ≥Grade 3, EAIR: 0.09 per 100 person-months
  Hemorrhage AESI ≥Grade 3, patients: 1.9%
  Hemorrhage AESI, EAIR: 1.39 per 100 person-months
  Hemorrhage AESI, patients: 23.4%
  Hypertension AESI ≥Grade 3, EAIR: 0.18 per 100 person-months
  Hypertension AESI ≥Grade 3, patients: 3.7%
  Hypertension AESI, EAIR: 0.37 per 100 person-months
  Hypertension AESI, patients: 7.5%
  Infection AESI leading to dose reduction: 1.9%
  Infection AESI leading to treatment discontinuation: 3.7%
  Infection AESI ≥Grade 3, EAIR: 1.45 per 100 person-months
  Infection AESI, EAIR: 9.70 per 100 person-months
  Major hemorrhage AESI leading to dose interruption: 0.9%
  Major hemorrhage AESI ≥Grade 3, EAIR: 0.09 per 100 person-months
  Major hemorrhage AESI ≥Grade 3, patients: 1.9%
  Major hemorrhage AESI, EAIR: 0.09 per 100 person-months
  Major hemorrhage AESI, patients: 1.9%
  Malignant melanoma: 1 (0.9%) n (%)
  Neutropenia AESI leading to dose reduction: 1.9%
  Neutropenia AESI leading to treatment interruption: 6.5%
  Neutropenia AESI ≥Grade 3, EAIR: 0.63 per 100 person-months
  Neutropenia AESI ≥Grade 3, patients: 20.1%
  Neutropenia AESI, EAIR: 0.92 per 100 person-months
  Neutropenia AESI, patients: 16.8%
  Neutropenic sepsis PT: 0.0%
  Neutropenic sepsis ≥Grade 3: 0.0%
  Neutrophil count decreased leading to dose reduction: 0.0%
  Opportunistic infection AESI leading to dose reduction: 0.9%
  Opportunistic infection AESI leading to treatment discontinuation: 0.9%
  Opportunistic infection AESI ≥Grade 3, EAIR: 0.04 per 100 person-months
  Opportunistic infection AESI ≥Grade 3, patients: 1 (0.9%) n (%)
  Opportunistic infection AESI, EAIR: 0.13 per 100 person-months
  Opportunistic infection AESI, patients: 2.8%
  Opportunistic infection SAEs, EAIR: 0.04 per 100 person-months
  Patients with at least 1 AESI: 89 (83.2) n (%)
  Petechiae (hemorrhage AESI): 0.0%
  Platelet count decreased PT: 4.7%
  Platelet count decreased ≥Grade 3: 0.9%
  Purpura (hemorrhage AESI): 0.0%
  SAEs of opportunistic infections, patients: 0.9% and 2.8%
  Second primary malignancies AESI leading to dose interruption: 5.6%
  Second primary malignancies AESI leading to treatment discontinuation: 2.8%
  Second primary malignancies AESI ≥Grade 3, EAIR: 0.27 per 100 person-months
  Second primary malignancies AESI ≥Grade 3, patients: 5.6%
  Second primary malignancies AESI, EAIR: 0.60 per 100 person-months
  Second primary malignancies AESI, patients: 12.1%
  Serious anemia AESI, EAIR: 0.04 per 100 person-months
  Serious atrial fibrillation and flutter AESI, EAIR: 0.09 per 100 person-months
  Serious atrial fibrillation and flutter AESI, patients: 1.9%
  Serious external ear neoplasm malignant: 0 (0.0%) n (%)
  Serious haematuria: 0 (0.0%) n (%)
  Serious haematuria (major hemorrhage): 0 (0.0%) n (%)
  Serious hemorrhage AESI, EAIR: 0.09 per 100 person-months
  Serious hemorrhage AESI, patients: 1.9%
  Serious infection AESI, EAIR: 1.15 per 100 person-months
  Serious major hemorrhage AESI, EAIR: 0.09 per 100 person-months
  Serious major hemorrhage AESI, patients: 1.9%
  Serious neutropenia AESI, EAIR: 0.18 per 100 person-months
  Serious neutropenia AESI, patients: 3.7%
  Serious neutropenic sepsis: 0%
  Serious neutrophil count decreased: 0.0%
  Serious second primary malignancies AESI, EAIR: 0.13 per 100 person-months
  Serious second primary malignancies AESI, patients: 2.8%
  Serious squamous cell carcinoma of skin: 0 (0.0%) n (%)
  Skin cancer AESI ≥Grade 3, EAIR: 0.13 per 100 person-months
  Skin cancer AESI, EAIR: 0.41 per 100 person-months
  Skin cancer AESI, patients: 8.4%
  Skin cancer SAE, EAIR: 0.04 per 100 person-months
  Squamous cell carcinoma of skin: 0.9%
  Squamous cell carcinoma of skin ≥Grade 3: 1 (0.9%) n (%)
  Thrombocytopenia AESI leading to dose interruption: 0.0%
  Thrombocytopenia AESI ≥Grade 3, EAIR: 0.13 per 100 person-months
  Thrombocytopenia AESI ≥Grade 3, patients: 2.8%
  Thrombocytopenia AESI, EAIR: 0.41 per 100 person-months
  Thrombocytopenia AESI, patients: 8.4%
  Thrombocytopenia PT: 3.7%
During Coadministration
  Anemia AESI ≥Grade 3, EAIR: 1.70 per 100 person-months
  Anemia AESI, EAIR: 1.91 per 100 person-months
  Atrial fibrillation PT: 1.4%
  Atrial fibrillation and flutter AESI Grade ≥3, EAIR: 0.33 per 100 person-months
  Atrial fibrillation and flutter AESI Grade ≥3, patients: 1.4%
  Atrial fibrillation and flutter AESI, EAIR: 0.33 per 100 person-months
  Atrial fibrillation and flutter AESI, patients: 1.4%
  Atrial flutter PT: 0.0%
  Basal cell carcinoma: 0.0%
  Basal cell carcinoma leading to dose interruption: 0 (0.0%) n (%)
  Basal cell carcinoma ≥Grade 3: 0 (0.0%) n (%)
  Epistaxis (hemorrhage AESI): 1.4%
  External ear neoplasm malignant leading to dose interruption: 1 (0.7%) n (%)
  Febrile neutropenia PT: 2.9%
  Grade 3 or higher AESI: 36 (26.1) n (%)
  Haematuria (hemorrhage AESI): 1.4%
  Haematuria (major hemorrhage): 0 (0.0%) n (%)
  Haematuria (major hemorrhage) ≥Grade 3: 0 (0.0%) n (%)
  Haematuria leading to dose interruption: 0 (0.0%) n (%)
  Haematuria ≥Grade 3: 0 (0.0%) n (%)
  Hemorrhage AESI leading to dose interruption: 0.7%
  Hemorrhage AESI ≥Grade 3, EAIR: 0.16 per 100 person-months
  Hemorrhage AESI ≥Grade 3, patients: 0.7%
  Hemorrhage AESI, EAIR: 4.04 per 100 person-months
  Hemorrhage AESI, patients: 14.5%
  Herpes zoster: 2.2%
  Hypertension AESI ≥Grade 3, EAIR: 0.17 per 100 person-months
  Hypertension AESI ≥Grade 3, patients: 0.7%
  Hypertension AESI, EAIR: 0.70 per 100 person-months
  Hypertension AESI, patients: 2.9%
  Infection AESI leading to dose reduction: 1.4%
  Infection AESI leading to treatment discontinuation: 4.3%
  Infection AESI ≥Grade 3, EAIR: 5.83 per 100 person-months
  Infection AESI, EAIR: 16.79 per 100 person-months
  Major hemorrhage AESI leading to dose interruption: 0.7%
  Major hemorrhage AESI ≥Grade 3, EAIR: 0.16 per 100 person-months
  Major hemorrhage AESI ≥Grade 3, patients: 0.7%
  Major hemorrhage AESI, EAIR: 0.16 per 100 person-months
  Major hemorrhage AESI, patients: 0.7%
  Malignant melanoma: 0 (0.0%) n (%)
  Neutropenia AESI leading to dose reduction: 0.0%
  Neutropenia AESI leading to treatment interruption: 7.2%
  Neutropenia AESI ≥Grade 3, EAIR: 3.72 per 100 person-months
  Neutropenia AESI ≥Grade 3, patients: 12.3%
  Neutropenia AESI, EAIR: 5.43 per 100 person-months
  Neutropenia AESI, patients: 17.4%
  Neutropenic sepsis PT: 0.0%
  Neutropenic sepsis ≥Grade 3: 0.0%
  Neutrophil count decreased leading to dose reduction: 0.0%
  Opportunistic infection AESI leading to dose reduction: 0.7%
  Opportunistic infection AESI leading to treatment discontinuation: 0.7%
  Opportunistic infection AESI ≥Grade 3, EAIR: 0.50 per 100 person-months
  Opportunistic infection AESI ≥Grade 3, patients: 3 (2.2%) n (%)
